Reference: US6613718B2, “Aryl ether derivatives and processes for their preparation and herbicidal and desiccant compositions containing them” (Ishihara Sangyo Kaisha, Ltd., priority 2001, dated 2003)

Columns and labels:
Type in all cases: in vivo
Settings in all cases: 14 days after application
[1] = tested on: upland rice (Oryza sp., var.Tebonnet, RICE); test: Pre-emerge greenhouse screening, crop safety (phytotoxicity rating)
Description: (§1) A standard greenhouse herbicide activity screening system was used to evaluate the herbicidal efficacy and crop safety of these test compounds. Seven broadleaf weed species including redroot pigweed (Amaranthus retroflexus, AMARE), velvetleaf (Abutilon theophrasti, ABUTH), sicklepod (Cassia obtusifolia, CASOB), ivyleaf morningglory (Ipomoea hederacea, IPOHE), lambsquarters (Chenopodium album, CHEAL), common ragweed (Ambrosia artemisiifolia L., AMBEL), and cocklebur (Xanthium strumarium, XANST) were used as test species. Four grass weed species including green foxtail (Setaria viridis, SETVI), barnyardgrass (Echinochloa crus-galli, ECHCG), johnsongrass (Sorghum halepense, SORHA), and large crabgrass (Digitaria sanguinalis, DIGSA) were also used. In addition, three crop species, field corn (Zea mays L., var. Dekalb 535, CORN), soybean (Glycine max L., var. Pella 86, SOY), and upland rice (Oryza sp., var.Tebonnet, RICE) were included.
(§2) All plants were grown in 10 cm square plastic pots which were filled with a sandy loam soil mix. For pre-emerge tests, seeds were planted one day prior to application of the test compounds. For post-emerge tests, seeds were planted 8-21 days prior to the test to allow emergence and good foliage development prior to application of the test substances. At the time of the post-emerge application, plants of all species were usually at the 2-3 leaf stage of development.
(§3) All test compounds were dissolved in acetone and applied to the test units in a volume of 187 1/ha. Test materials were applied at rates ranging from 15 g ai/ha to 1000 g ai/ha using a track sprayer equipped with a TJ8001E even flow flat fan spray nozzle. Plants were arranged on a shelf so that the top of the canopy (post-emerge) or top of the soil surface (pre-emerge) was 40-45 cm below the nozzle. Pressurized air was used to force the test solution through the nozzle as it was mechanically advanced (via electrically driven chain drive) over the top of all test plants/pots. This application simulates a typical commercial field herbicide application.
(§4) In the post-emerge test, a commercial non-ionic surfactant was also included (0.25% v/v) to enhance wetting of the leaf surfaces of target plants. Immediately after application, test units of the pre-emerge applications were watered at the soil surface to incorporate the test materials. Subsequently, these test units were bottom-watered. Post-emerge test units were always bottom-watered.
(§5) At 14 days after application of the test materials, phytotoxicity ratings were recorded. A rating scale of 0-100 was used as previously described in Research Methods in Weed Science, 2nd edition, B. Truelove, Ed., Southern Weed Science Society, Auburn University, Auburn, Ala., 1977. Briefly, “0” corresponds to no damage and “100” corresponds to complete death of all plants in the test unit. This scale was used both to determine efficacy against weed species and damage to crop species. Herbicide activity data for various compounds of this invention, which are shown by compound No. in Tables I-VI, are shown in Tables VIII-IX.

[2] = tested on: soybean (Glycine max L., var. Pella 86, SOY); test: as above
Description: as §1, §2, §3, §4, §5

[3] = tested on: field corn (Zea mays L., var. Dekalb 535, CORN); test: as above
Description: as §1, §2, §3, §4, §5

[4] = tested on: field corn (Zea mays L., var. Dekalb 535, CORN); test: Post-emerge greenhouse screening, crop safety / corn selectivity (phytotoxicity rating)
Description: as §1, §2, §3, §4, §5

[5] = tested on: green foxtail (Setaria viridis, SETVI); test: Post-emerge greenhouse herbicide activity screening, phytotoxicity rating
Description: as §1, §2, §3, §4, §5

[6] = tested on: large crabgrass (Digitaria sanguinalis, DIGSA); test: as above
Description: as §1, §2, §3, §4, §5

[7] = tested on: sicklepod (Cassia obtusifolia, CASOB); test: as above
Description: as §1, §2, §3, §4, §5

[8] = tested on: redroot pigweed (Amaranthus retroflexus, AMARE); test: as above
Description: as §1, §2, §3, §4, §5

[9] = tested on: lambsquarters (Chenopodium album, CHEAL); test: as above
Description: as §1, §2, §3, §4, §5

[10] = tested on: velvetleaf (Abutilon theophrasti, ABUTH); test: as above
Description: as §1, §2, §3, §4, §5

[11] = tested on: johnsongrass (Sorghum halepense, SORHA); test: as above
Description: as §1, §2, §3, §4, §5

[12] = tested on: ivyleaf morningglory (Ipomoea hederacea, IPOHE); test: as above
Description: as §1, §2, §3, §4, §5

[13] = tested on: barnyardgrass (Echinochloa crus-galli, ECHCG); test: as above
Description: as §1, §2, §3, §4, §5

[14] = tested on: common ragweed (Ambrosia artemisiifolia L., AMBEL); test: as above
Description: as §1, §2, §3, §4, §5

[15] = tested on: upland rice (Oryza sp., var.Tebonnet, RICE); test: Post-emerge greenhouse screening, crop safety (phytotoxicity rating)
Description: as §1, §2, §3, §4, §5

[16] = tested on: soybean (Glycine max L., var. Pella 86, SOY); test: as above
Description: as §1, §2, §3, §4, §5

[17] = tested on: green foxtail (Setaria viridis, SETVI); test: Pre-emerge greenhouse herbicide activity screening, phytotoxicity rating
Description: as §1, §2, §3, §4, §5

[18] = tested on: large crabgrass (Digitaria sanguinalis, DIGSA); test: as above
Description: as §1, §2, §3, §4, §5

[19] = tested on: sicklepod (Cassia obtusifolia, CASOB); test: as above
Description: as §1, §2, §3, §4, §5

[20] = tested on: redroot pigweed (Amaranthus retroflexus, AMARE); test: as above
Description: as §1, §2, §3, §4, §5

[21] = tested on: lambsquarters (Chenopodium album, CHEAL); test: as above
Description: as §1, §2, §3, §4, §5

[22] = tested on: velvetleaf (Abutilon theophrasti, ABUTH); test: as above
Description: as §1, §2, §3, §4, §5

[23] = tested on: johnsongrass (Sorghum halepense, SORHA); test: as above
Description: as §1, §2, §3, §4, §5

[24] = tested on: ivyleaf morningglory (Ipomoea hederacea, IPOHE); test: as above
Description: as §1, §2, §3, §4, §5

[25] = tested on: barnyardgrass (Echinochloa crus-galli, ECHCG); test: as above
Description: as §1, §2, §3, §4, §5

[26] = tested on: common ragweed (Ambrosia artemisiifolia L., AMBEL); test: as above
Description: as §1, §2, §3, §4, §5

**Q.** Which “RICE crop damage, phytotoxicity rating (0-100 scale)” value (from here on “RICE crop damage”) ([1]; 125 g ai/ha) does the source give for Cn1c(C(F)(F)F)cc(=O)n(-c2cc(Oc3ccccc3)c(Cl)cc2F)c1=S [Compound 1-47] here?
**A.** 15

**Q.** And the “RICE crop damage” value ([1]; 250 g ai/ha)?
**A.** 25

**Q.** What about the “SOY crop damage, phytotoxicity rating (0-100 scale)” value (“SOY crop damage” below) ([2]; 125 g ai/ha) of the same compound?
**A.** 50

**Q.** What about the “SOY crop damage” value ([2]; 250 g ai/ha) of the same compound?
**A.** 65

**Q.** What about the “CORN crop damage, phytotoxicity rating (0-100 scale)” value (from here on “CORN crop damage”) ([3]; 125 g ai/ha) of the same compound?
**A.** 5

**Q.** And the “CORN crop damage” value ([3]; 250 g ai/ha)?
**A.** 8

**Q.** What about the “CORN crop damage” value ([4]; 125 g ai/ha) of the same compound?
**A.** 0

**Q.** What about the “CORN crop damage” value ([4]; 250 g ai/ha) of the same compound?
**A.** 0

**Q.** And the “SETVI phytotoxicity rating (0-100 scale)” value ([5]; 125 g ai/ha)?
**A.** 50

**Q.** And the “SETVI phytotoxicity rating (0-100 scale)” value ([5]; 250 g ai/ha)?
**A.** 75

**Q.** And the “DIGSA phytotoxicity rating (0-100 scale)” value ([6]; 125 g ai/ha)?
**A.** 10

**Q.** What about the “DIGSA phytotoxicity rating (0-100 scale)” value ([6]; 250 g ai/ha) of the same compound?
**A.** 35

**Q.** And the “CASOB phytotoxicity rating (0-100 scale)” value ([7]; 125 g ai/ha)?
**A.** 65

**Q.** And the “CASOB phytotoxicity rating (0-100 scale)” value ([7]; 250 g ai/ha)?
**A.** 65

**Q.** And the “AMARE phytotoxicity rating (0-100 scale)” value ([8]; 125 g ai/ha)?
**A.** 100

**Q.** And the “AMARE phytotoxicity rating (0-100 scale)” value ([8]; 250 g ai/ha)?
**A.** 100

**Q.** What about the “CHEAL phytotoxicity rating (0-100 scale)” value ([9]; 125 g ai/ha) of the same compound?
**A.** 99

**Q.** What about the “CHEAL phytotoxicity rating (0-100 scale)” value ([9]; 250 g ai/ha) of the same compound?
**A.** 100

**Q.** What about the “ABUTH phytotoxicity rating (0-100 scale)” value ([10]; 125 g ai/ha) of the same compound?
**A.** 100

**Q.** What about the “ABUTH phytotoxicity rating (0-100 scale)” value ([10]; 250 g ai/ha) of the same compound?
**A.** 100

**Q.** What about the “SORHA phytotoxicity rating (0-100 scale)” value ([11]; 125 g ai/ha) of the same compound?
**A.** 0

**Q.** What about the “SORHA phytotoxicity rating (0-100 scale)” value ([11]; 250 g ai/ha) of the same compound?
**A.** 0

**Q.** And the “IPOHE phytotoxicity rating (0-100 scale)” value ([12]; 125 g ai/ha)?
**A.** 75

**Q.** And the “IPOHE phytotoxicity rating (0-100 scale)” value ([12]; 250 g ai/ha)?
**A.** 85

**Q.** What about the “ECHCG phytotoxicity rating (0-100 scale)” value ([13]; 125 g ai/ha) of the same compound?
**A.** 60

**Q.** What about the “ECHCG phytotoxicity rating (0-100 scale)” value ([13]; 250 g ai/ha) of the same compound?
**A.** 65

**Q.** What about the “AMBEL phytotoxicity rating (0-100 scale)” value ([14]; 125 g ai/ha) of the same compound?
**A.** 70

**Q.** What about the “AMBEL phytotoxicity rating (0-100 scale)” value ([14]; 250 g ai/ha) of the same compound?
**A.** 75

**Q.** What about the “RICE crop damage” value ([15]; 125 g ai/ha) of the same compound?
**A.** 0

**Q.** What about the “RICE crop damage” value ([15]; 250 g ai/ha) of the same compound?
**A.** 0

**Q.** What about the “SOY crop damage” value ([16]; 125 g ai/ha) of the same compound?
**A.** 15

**Q.** And the “SOY crop damage” value ([16]; 250 g ai/ha)?
**A.** 40

**Q.** What about the “SETVI phytotoxicity rating (0-100 scale)” value ([17]; 125 g ai/ha) of the same compound?
**A.** 100

**Q.** And the “SETVI phytotoxicity rating (0-100 scale)” value ([17]; 250 g ai/ha)?
**A.** 100

**Q.** And the “DIGSA phytotoxicity rating (0-100 scale)” value ([18]; 125 g ai/ha)?
**A.** 95

**Q.** What about the “DIGSA phytotoxicity rating (0-100 scale)” value ([18]; 250 g ai/ha) of the same compound?
**A.** 100

**Q.** And the “CASOB phytotoxicity rating (0-100 scale)” value ([19]; 125 g ai/ha)?
**A.** 90

**Q.** What about the “CASOB phytotoxicity rating (0-100 scale)” value ([19]; 250 g ai/ha) of the same compound?
**A.** 99

**Q.** What about the “AMARE phytotoxicity rating (0-100 scale)” value ([20]; 125 g ai/ha) of the same compound?
**A.** 100

**Q.** And the “AMARE phytotoxicity rating (0-100 scale)” value ([20]; 250 g ai/ha)?
**A.** 100

**Q.** And the “CHEAL phytotoxicity rating (0-100 scale)” value ([21]; 125 g ai/ha)?
**A.** 100

**Q.** What about the “CHEAL phytotoxicity rating (0-100 scale)” value ([21]; 250 g ai/ha) of the same compound?
**A.** 100

**Q.** And the “ABUTH phytotoxicity rating (0-100 scale)” value ([22]; 125 g ai/ha)?
**A.** 100

**Q.** What about the “ABUTH phytotoxicity rating (0-100 scale)” value ([22]; 250 g ai/ha) of the same compound?
**A.** 100

**Q.** What about the “SORHA phytotoxicity rating (0-100 scale)” value ([23]; 125 g ai/ha) of the same compound?
**A.** 50

**Q.** And the “SORHA phytotoxicity rating (0-100 scale)” value ([23]; 250 g ai/ha)?
**A.** 55

**Q.** And the “IPOHE phytotoxicity rating (0-100 scale)” value ([24]; 125 g ai/ha)?
**A.** 95

**Q.** What about the “IPOHE phytotoxicity rating (0-100 scale)” value ([24]; 250 g ai/ha) of the same compound?
**A.** 98

**Q.** And the “ECHCG phytotoxicity rating (0-100 scale)” value ([25]; 125 g ai/ha)?
**A.** 80

**Q.** What about the “ECHCG phytotoxicity rating (0-100 scale)” value ([25]; 250 g ai/ha) of the same compound?
**A.** 85

**Q.** And the “AMBEL phytotoxicity rating (0-100 scale)” value ([26]; 125 g ai/ha)?
**A.** 95

**Q.** What about the “AMBEL phytotoxicity rating (0-100 scale)” value ([26]; 250 g ai/ha) of the same compound?
**A.** 99
